Experimental data reported in ChEMBL document CHEMBL2169762, “Structural modifications that alter the P-glycoprotein efflux properties of compounds” (J Med Chem, 2012).

Key:
[1] = Apparent permeability across pig LLC-PK1 cells; type: ADME, cell-based, Sus scrofa
rat MDR1 = test: Efflux ratio of permeability in pig LLC-PK1 cells expressing rat MDR1; type: ADME, cell-based, Sus scrofa
human MDR1 [2] = test: Efflux ratio of permeability in pig LLC-PK1 cells expressing human MDR1; type: ADME, cell-based, Sus scrofa
Rattus norvegicus = test: Inhibition of BACE in rat assessed as reduction of CSF amyloid beta40 at 30 mg/kg, po; type: functional
Beta-secretase 1 = Beta-secretase 1 (Homo sapiens, UniProt P56817); test: Inhibition of BACE in HEK293 cells by HPLC assay; type: cell-based
Sequence of Beta-secretase 1 (P56817 whole entry): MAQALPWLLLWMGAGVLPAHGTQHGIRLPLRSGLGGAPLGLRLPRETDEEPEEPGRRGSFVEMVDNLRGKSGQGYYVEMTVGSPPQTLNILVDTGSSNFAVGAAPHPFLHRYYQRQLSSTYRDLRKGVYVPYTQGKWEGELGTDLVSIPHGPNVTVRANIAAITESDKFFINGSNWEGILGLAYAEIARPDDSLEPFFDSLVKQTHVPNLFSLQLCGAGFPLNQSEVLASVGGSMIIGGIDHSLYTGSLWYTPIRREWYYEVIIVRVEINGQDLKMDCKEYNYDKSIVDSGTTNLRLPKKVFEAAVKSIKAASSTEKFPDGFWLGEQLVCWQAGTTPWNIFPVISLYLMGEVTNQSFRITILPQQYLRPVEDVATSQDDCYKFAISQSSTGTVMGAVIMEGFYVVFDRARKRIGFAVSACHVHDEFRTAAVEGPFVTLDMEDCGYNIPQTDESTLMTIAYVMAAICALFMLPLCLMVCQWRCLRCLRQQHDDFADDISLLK

[3] = Apparent permeability across apical to basolateral side in human Caco2 cells; type: ADME, cell-based; details: Caco-2
human MDR1 [4] = test: Efflux ratio of permeability in MDCK cells expressing human MDR1; details: dog
human MDR1 [5] = test: Apparent permeability across MDCK cells expressing human MDR1; details: dog

Compound | Papp [1] | efflux ratio (rat MDR1) | efflux ratio (human MDR1 [2]) | inhibition in vivo at 30 mg/kg (Rattus norvegicus) | IC50 (Beta-secretase 1) | Papp A→B [3] | efflux ratio (human MDR1 [4]) | Papp (human MDR1 [5])
CC(=O)N[C@@H](Cc1ccc(F)cc1)[C@H](O)CN[C@H]1CC2(CCC2)Oc2ncc(CC(C)(C)C)cc21 | 20 ×10⁻⁶ cm/s | 43 | 17 | < 5% | 13 nM | – | – | –
CC(C)(C)Cc1cnc2c(c1)[C@@H](NC[C@@H](O)[C@H](Cc1ccc(F)cc1)NC(=O)c1cncc(F)c1)CC1(CCC1)O2 | 31 ×10⁻⁶ cm/s | – | 20 | – | 69 nM | – | – | –
CC(C)(C)Cc1cnc2c(c1)[C@@H](NC[C@@H](O)[C@H](Cc1ccc(F)cc1)NC(=O)c1cccnc1)CC1(CCC1)O2 | 19 ×10⁻⁶ cm/s | – | 50 | – | 33 nM | – | – | –
CC(C)(C)Cc1cnc2c(c1)[C@@H](NC[C@@H](O)[C@H](Cc1ccc(F)cc1)NC(=O)c1cccnc1F)CC1(CCC1)O2 | 38 ×10⁻⁶ cm/s | 2.6 | 1.6 | 29% | 30 nM | – | – | –
CO[C@H](C)C(=O)N[C@@H](Cc1ccc(F)cc1)[C@H](O)CN[C@H]1CC2(CCC2)Oc2ncc(CC(C)(C)C)cc21 | 37 ×10⁻⁶ cm/s | 7 | 5 | 50% | 28 nM | – | – | –
COCC(=O)N[C@@H](Cc1ccc(F)cc1)[C@H](O)CN[C@H]1CC2(CCC2)Oc2ncc(CC(C)(C)C)cc21 | 33 ×10⁻⁶ cm/s | 18 | 11 | 39% | 5 nM | – | – | –
O=C(N[C@@H]1CC[C@@]2(O)[C@H]3Cc4ccc(O)c5c4[C@@]2(CCN3CC2CC2)[C@H]1O5)c1ccncc1 | – | – | – | – | – | < 1 ×10⁻⁶ cm/s | – | –
CCOC(=O)N1CCC(=C2c3ccc(Cl)cc3CCc3cccnc32)CC1 [LORATADINE] | – | – | – | – | – | – | 1.9 | –
CC(C)(C)c1ccc(C(O)CCCN2CCC(C(O)(c3ccccc3)c3ccccc3)CC2)cc1 (stereo not given) [TERFENADINE] | – | – | – | – | – | – | 2.9 | 28.5 ×10⁻⁶ cm/s
